Measured values published in patent publication US8987250B2 (Gilead Sciences, Inc., priority 2012, dated 2015).
Read-outs that look alike come from different tables or passages of the source.

What was measured:
human liver microsomes = test: Test B: Metabolic Stability Assay with Human Liver Microsomes; assay type: in vitro ADME; settings: 1 uM compound, 1 mg/mL human liver microsomal proteins, 37° C., 0-60 minutes; half-life class
Description: Test B: Metabolic Stability Assay with Human Liver Microsomes
Effective viral suppression in the HIV infected patient requires that the antiviral drug persists in the patient's body at concentrations exceeding the minimum concentration required to inhibit viral proliferation. One of the factors controlling the drug levels after dosing is metabolic conversion. The liver is one site of drug metabolism. Approximately 60% of marketed drugs are cleared by hepatic metabolism (McGinnity D F et al. (2004) Drug Metab Dispos 32; 1247-1253). Liver microsomes are subcellular fractions which contain membrane bound drug metabolising enzymes. Human liver microsomes provide a convenient and concentrated source of the key liver metabolic enzymes (e.g., cytochromes P450, UDP-glucuronosyltransferases, and many others) and can be used to predict the metabolic stability of drug candidates (e.g., agents).
Cluster tubes containing 500 uL of 1 uM compound with 1 mg/mL human liver microsomal proteins (BD Biosciences, BD452117)/50 mM K-phosphate buffer pH7.4/NADPH regenerating system/and UDP-glucuronosyltransferase cofactors, were incubated on the Precision-2000 workstation at 37° C. for 0, 10, 25, 60 minutes. The reactions were quenched with 100 uL of 0.2% formic acid in 90% ACN; containing 50 nM of an internal standard. The samples were analyzed on LC/MS/MS instrument (Q-Trap). Metabolic stabilities in microsomal fractions and hepatocytes were determined by measuring the rate of disappearance of the compound. Data (% of parent remaining) were plotted on a semi logarithmic scale and fitted using an exponential fit.

HIV-IIIb = test: Test A: Antiviral Assay in MT4 Cells; assay type: cell-based
Summary of the method: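 MT-4 cells pre-infected with HIV-IIIb (0.004 m.o.i.) at 37 °C, then exposed to 3-fold serial compound dilutions (10 concentrations, quadruplicate) in RPMI 1640/10% FBS. After 5 days at 37 °C, viability read by CellTiter-Glo luminescence.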

[1] = Human immunodeficiency virus 1, IIIB, MT4, 120 h, Table 1, MT-4 cells infected with HIV-IIIb, 5 days of incubation, CellTiter-Glo, read-out: EC50
[2] = Human immunodeficiency virus 1, IIIB, MT4, 120 h, Table 2, MT-4 cells infected with HIV-IIIb, 5 days of incubation, CellTiter-Glo, read-out: EC50
[3] = Table 2, MT-4 cells infected with HIV-IIIb, 5 days of incubation, CellTiter-Glo, read-out: EC50

Row | Compound | Human Microsomal stability (human liver microsomes) | EC50 (HIV-IIIb; [1]) [nM] | EC50 (HIV-IIIb; [2]) [nM] | further results
1 | Cc1cc2nc(-c3cccc(-c4ccc5c(cnn5C)c4)c3)sc2c(-c2ccc3c4c(ccnc24)CCO3)c1[C@H](OC(C)(C)C)C(=O)O (atropisomer, axis not shown) [Compound 163] | C (a human microsomal stability half-life of less than 150 minutes) | – | – | EC50 (HIV-IIIb; Table 1, MT-4 cells infected with HIV-IIIb, 5 days of incubation, CellTiter-Glo, read-out: EC50): 18 nM
2 | COc1cncc(-c2cccc(-c3nc4cc(C)c([C@H](OC(C)(C)C)C(=O)O)c(-c5ccc(Cl)cc5)c4s3)c2)c1 [Compound 104, (S)-2-tert-butoxy-2-(7-(4-chlorophenyl)-2-(3-(5-methoxypyridin-3-yl)phenyl)-5-methylbenzo[d]thiazol-6-yl)acetic acid] | C (a human microsomal stability half-life of less than 150 minutes) | 42 | – | –
3 | Cc1cc2nc(-c3cccc(-c4ccnc(Cl)c4)c3)sc2c(-c2ccc(Cl)cc2)c1[C@H](OC(C)(C)C)C(=O)O [Compound 107, (S)-2-tert-butoxy-2-(7-(4-chlorophenyl)-2-(3-(2-chloropyridin-4-yl)phenyl)-5-methylbenzo[d]thiazol-6-yl)acetic acid] | C (a human microsomal stability half-life of less than 150 minutes) | 46 | – | –
4 | Cc1cc2nc(-c3cccc(-c4ccc5c(cnn5C)c4)c3)sc2c(-c2ccc(Cl)cc2)c1[C@H](OC(C)(C)C)C(=O)O [Compound 109, (S)-2-tert-butoxy-2-(7-(4-chlorophenyl)-5-methyl-2-(3-(1-methyl-1H-indazol-5-yl)phenyl)benzo[d]thiazol-6-yl)acetic acid] | B (a human microsomal stability half-life of less than 300 minutes but greater than or equal to 150 minutes) | 82 | – | –
5 | Cc1cc2nc(-c3ccnc(-c4ccc5c(cnn5C)c4)c3)sc2c(-c2ccc(Cl)cc2)c1[C@H](OC(C)(C)C)C(=O)O [Compound 113a, (S)-2-tert-butoxy-2-(7-(4-chlorophenyl)-5-methyl-2-(2-(1-methyl-1H-indazol-5-yl)pyridin-4-yl)benzo[d]thiazol-6-yl)acetic acid] | A (a human microsomal stability half-life of greater than or equal to 300 minutes) | 16 | – | –
6 | Cc1cc2nc(-c3cccc(-c4cnn(C(C)(C)C)c4)c3)sc2c(-c2ccc(Cl)cc2)c1[C@H](OC(C)(C)C)C(=O)O [Compound 141] | B (a human microsomal stability half-life of less than 300 minutes but greater than or equal to 150 minutes) | 77 | – | –
7 | COc1cc(-c2cccc(-c3nc4cc(C)c([C@H](OC(C)(C)C)C(=O)O)c(-c5ccc(Cl)cc5)c4s3)c2)ccn1 [Compound 152] | C (a human microsomal stability half-life of less than 150 minutes) | 46 | – | –
8 | Cc1cc2nc(-c3cccc(-c4cnn(C)c4)c3)sc2c(-c2ccc(Cl)cc2)c1[C@H](OC(C)(C)C)C(=O)O [Compound 158] | C (a human microsomal stability half-life of less than 150 minutes) | 17 | – | –
9 | Cc1cc2nc(-c3ccnc(-n4ccc5cnccc5c4=O)c3)sc2c(-c2ccc(Cl)cc2)c1[C@H](OC(C)(C)C)C(=O)O [Compound 186, (S)-2-tert-butoxy-2-(7-(4-chlorophenyl)-5-methyl-2-(2-(1-oxo-2,6-naphthyridin-2(1H)-yl)pyridin-4-yl)benzo[d]thiazol-6-yl)acetic acid] | C (a human microsomal stability half-life of less than 150 minutes) | – | 4 | –
10 | Cc1cc2nc(-c3ccnc(N4CCN(C(C)C)CC4)n3)sc2c(-c2ccc(Cl)cc2)c1[C@H](OC(C)(C)C)C(=O)O [Compound 202, (S)-2-tert-butoxy-2-(7-(4-chlorophenyl)-2-(2-(4-isopropylpiperazin-1-yl)pyrimidin-4-yl)-5-methylbenzo[d]thiazol-6-yl)acetic acid] | A (a human microsomal stability half-life of greater than or equal to 300 minutes) | – | 2 | –
11 | Cc1cc2nc(-c3ccc4c(c3)ncn4Cc3ccccc3)sc2c(-c2ccc(Cl)cc2)c1[C@H](OC(C)(C)C)C(=O)O [Compound 285, (S)-2-(2-(1-benzyl-1H-benzo[d]imidazol-5-yl)-7-(4-chlorophenyl)-5-methylbenzo[d]thiazol-6-yl)-2-tert-butoxyacetic acid] | A (a human microsomal stability half-life of greater than or equal to 300 minutes) | – | – | –
12 | Cc1cc2nc(-c3ccnc(-c4ccc5nc(N)ccc5c4)n3)sc2c(-c2ccc(Cl)cc2)c1[C@H](OC(C)(C)C)C(=O)O [Compound 489, (S)-2-(2-(2-(2-aminoquinolin-6-yl)pyrimidin-4-yl)-7-(4-chlorophenyl)-5-methylbenzo[d]thiazol-6-yl)-2-tert-butoxyacetic acid] | – | – | 20 | –
13 | Cc1cc2nc(-c3cnc(C)c(-c4ccc5c(cnn5C)n4)c3)sc2c(-c2ccc(Cl)cc2)c1[C@H](OC(C)(C)C)C(=O)O [Compound 490, (S)-2-tert-butoxy-2-(7-(4-chlorophenyl)-5-methyl-2-(6-methyl-5-(1-methyl-1H-pyrazolo[4,3-b]pyridin-5-yl)pyridin-3-yl)benzo[d]thiazol-6-yl)acetic acid] | – | – | – | EC50 (HIV-IIIb; Human immunodeficiency virus 1, IIIB, MT4, 120 h): 3 nM
14 | Cc1cc2nc(N3CCN(C)[C@@H](c4ccc5c(cnn5C)c4)C3)sc2c(-c2ccc(Cl)cc2)c1[C@H](OC(C)(C)C)C(=O)O [Compound 491, (S)-2-tert-butoxy-2-(7-(4-chlorophenyl)-5-methyl-2-((S)-4-methyl-3-(1-methyl-1H-indazol-5-yl)piperazin-1-yl)benzo[d]thiazol-6-yl)acetic acid] | – | – | 51 | –
15 | Cc1cc2nc(N3CCN(C)[C@H](c4ccc5c(cnn5C)c4)C3)sc2c(-c2ccc(Cl)cc2)c1[C@H](OC(C)(C)C)C(=O)O [Compound 492, (S)-2-tert-butoxy-2-(7-(4-chlorophenyl)-5-methyl-2-((R)-4-methyl-3-(1-methyl-1H-indazol-5-yl)piperazin-1-yl)benzo[d]thiazol-6-yl)acetic acid] | – | – | 3 | –
16 | Cc1cc2nc(-c3ccc4c(c3)c(N3CCN(C(C)C(F)(F)F)CC3)nn4C)sc2c(-c2ccc(Cl)cc2)c1[C@H](OC(C)(C)C)C(=O)O (stereo partly drawn) [Compound 493, (2S)-2-tert-butoxy-2-(7-(4-chlorophenyl)-5-methyl-2-(1-methyl-3-(4-((2R/2S)-1,1,1-trifluoropropan-2-yl)piperazin-1-yl)-1H-indazol-5-yl)benzo[d]thiazol-6-yl)acetic acid] | – | – | – | EC50 (HIV-IIIb; [3]): 51 nM
17 | Cc1cc2nc(-c3ccc4c(n3)c(N3CCN(C)CC3)nn4C)sc2c(-c2ccc(Cl)cc2)c1[C@H](OC(C)(C)C)C(=O)O [Compound 495, (S)-2-tert-butoxy-2-(7-(4-chlorophenyl)-5-methyl-2-(1-methyl-3-(4-methylpiperazin-1-yl)-1H-pyrazolo[4,3-b]pyridin-5-yl)benzo[d]thiazol-6-yl)acetic acid] | – | – | 4 | –
18 | Cc1cc2nc(-c3ccc4c(n3)c(-c3cccnc3)nn4C)sc2c(-c2ccc(Cl)cc2)c1[C@H](OC(C)(C)C)C(=O)O [Compound 496, (S)-2-tert-butoxy-2-(7-(4-chlorophenyl)-5-methyl-2-(1-methyl-3-(pyridin-3-yl)-1H-pyrazolo[4,3-b]pyridin-5-yl)benzo[d]thiazol-6-yl)acetic acid] | – | – | 5 | –
19 | Cc1cc2nc(-c3ccc4c(c3)c(-c3cncnc3)nn4C)sc2c(-c2ccc(Cl)cc2)c1[C@H](OC(C)(C)C)C(=O)O [Compound 497, (S)-2-tert-butoxy-2-(7-(4-chlorophenyl)-5-methyl-2-(1-methyl-3-(pyrimidin-5-yl)-1H-indazol-5-yl)benzo[d]thiazol-6-yl)acetic acid] | – | – | 4 | –
20 | Cc1cc2nc(-c3ccnc(-c4cnc5[nH]cc(C)c5c4)c3)sc2c(-c2ccc(Cl)cc2)c1[C@H](OC(C)(C)C)C(=O)O [Compound 498, (S)-2-tert-butoxy-2-(7-(4-chlorophenyl)-5-methyl-2-(2-(3-methyl-1H-pyrrolo[2,3-b]pyridin-5-yl)pyridin-4-yl)benzo[d]thiazol-6-yl)acetic acid] | – | – | 34 | –
21 | CC(=O)N(C)c1ccc(-c2cc(-c3nc4cc(C)c([C@H](OC(C)(C)C)C(=O)O)c(-c5ccc(Cl)cc5)c4s3)ccn2)cc1 [Compound 499, (S)-2-(tert-butoxy)-2-(7-(4-chlorophenyl)-5-methyl-2-(2-(4-(N-methylacetamido)phenyl)pyridin-4-yl)benzo[d]thiazol-6-yl)acetic acid] | – | – | 12 | –
22 | (S)-2-tert-butoxy-2-(7-(4-chlorophenyl)-2-(3-(4,4-dimethylpiperazin-1-ium-1-yl)-1-methyl-1H-indazol-5-yl)-5-methylbenzo[d]thiazol-6-yl)acetate [Compound 494] | – | – | – | EC50 (HIV-IIIb; [3]): 2880 nM
